Experimental data: the NIST ThermoML archive (doi:10.1021/je900550v)

Details: 101.33 kPa, Liquid; for speed of sound: Pulse-echo method; for mass density: Vibrating tube method

CCC(=O)[O-].C[NH2+]CCO [2-hydroxy-N-methylethanaminium propionate]
Details	mass density [kg/m3]	speed of sound [m/s]	viscosity [mPa·s]
278.15 K	1084.28	1752.4	–
278.4 K	1084.12	1751.6	–
278.65 K	1083.96	1750.7	–
278.9 K	1083.8	1749.8	–
279.15 K	1083.63	1749	–
279.4 K	1083.47	1748.1	–
279.65 K	1083.31	1747.3	–
279.9 K	1083.15	1746.5	–
280.15 K	1082.98	1745.6	–
280.4 K	1082.82	1744.8	–
280.65 K	1082.66	1744	–
280.9 K	1082.5	1743.1	–
281.15 K	1082.34	1742.3	–
281.4 K	1082.18	1741.5	–
281.65 K	1082.02	1740.7	–
281.9 K	1081.86	1739.8	–
282.15 K	1081.69	1739	–
282.4 K	1081.53	1738.2	–
282.65 K	1081.37	1737.4	–
282.9 K	1081.21	1736.6	–
283.15 K	1081.05	1735.8	–
283.4 K	1080.88	1735	–
283.65 K	1080.72	1734.2	–
283.9 K	1080.56	1733.4	–
284.15 K	1080.39	1732.6	–
284.4 K	1080.23	1731.8	–
284.65 K	1080.07	1731	–
284.9 K	1079.91	1730.2	–
285.15 K	1079.75	1729.4	–
285.4 K	1079.59	1728.5	–
285.65 K	1079.42	1727.8	–
285.9 K	1079.25	1727	–
286.15 K	1079.09	1726.2	–
286.4 K	1078.93	1725.5	–
286.65 K	1078.76	1724.7	–
286.9 K	1078.6	1723.9	–
287.15 K	1078.44	1723.1	–
287.4 K	1078.28	1722.4	–
287.65 K	1078.11	1721.6	–
287.9 K	1077.95	1720.8	–
288.15 K	1077.79	1720	432.13
288.4 K	1077.62	1719.3	–
288.65 K	1077.46	1718.5	–
288.9 K	1077.3	1717.7	–
289.15 K	1077.13	1717	–
289.4 K	1076.97	1716.2	–
289.65 K	1076.81	1715.4	–
289.9 K	1076.64	1714.7	–
290.15 K	1076.48	1713.9	–
290.4 K	1076.31	1713.2	–
290.65 K	1076.15	1712.4	359.06
290.9 K	1075.98	1711.6	–
291.15 K	1075.82	1710.9	–
291.4 K	1075.65	1710.1	–
291.65 K	1075.49	1709.3	–
291.9 K	1075.33	1708.6	–
292.15 K	1075.16	1707.8	–
292.4 K	1075	1707.1	–
292.65 K	1074.83	1706.4	–
292.9 K	1074.67	1705.6	–
293.15 K	1074.5	1704.9	301.63
293.4 K	1074.34	1704.1	–
293.65 K	1074.17	1703.4	–
293.9 K	1074.01	1702.6	–
294.15 K	1073.84	1701.9	–
294.4 K	1073.68	1701.1	–
294.65 K	1073.51	1700.4	–
294.9 K	1073.35	1699.7	–
295.15 K	1073.18	1698.9	–
295.4 K	1073.02	1698.2	–
295.65 K	1072.86	1697.4	256.14
295.9 K	1072.7	1696.7	–
296.15 K	1072.54	1695.9	–
296.4 K	1072.38	1695.2	–
296.65 K	1072.22	1694.5	–
296.9 K	1072.07	1693.7	–
297.15 K	1071.9	1693	–
297.4 K	1071.74	1692.2	–
297.65 K	1071.59	1691.5	–
297.9 K	1071.43	1690.7	–
298.15 K	1071.27	1690	215.06
298.4 K	1071.11	1689.3	–
298.65 K	1070.95	1688.5	–
298.9 K	1070.79	1687.8	–
299.15 K	1070.63	1687	–
299.4 K	1070.47	1686.3	–
299.65 K	1070.31	1685.5	–
299.9 K	1070.15	1684.8	–
300.15 K	1069.99	1684.1	–
300.4 K	1069.83	1683.3	–
300.65 K	1069.67	1682.6	182.88
300.9 K	1069.51	1681.8	–
301.15 K	1069.35	1681.1	–
301.4 K	1069.18	1680.3	–
301.65 K	1069.02	1679.6	–
301.9 K	1068.86	1678.9	–
302.15 K	1068.69	1678.1	–
302.4 K	1068.53	1677.4	–
302.65 K	1068.38	1676.7	–
302.9 K	1068.21	1675.9	–
303.15 K	1068.05	1675.2	158.24
303.4 K	1067.89	1674.5	–
303.65 K	1067.73	1673.7	–
303.9 K	1067.57	1673	–
304.15 K	1067.4	1672.3	–
304.4 K	1067.24	1671.5	–
304.65 K	1067.08	1670.8	–
304.91 K	1066.92	1670.1	–
305.15 K	1066.76	1669.3	140.88
305.4 K	1066.59	1668.6	–
305.65 K	1066.42	1667.9	–
305.9 K	1066.27	1667.1	–
306.15 K	1066.1	1666.4	–
306.4 K	1065.94	1665.7	–
306.65 K	1065.77	1664.9	–
306.9 K	1065.61	1664.2	–
307.15 K	1065.45	1663.5	–
307.4 K	1065.28	1662.7	–
307.65 K	1065.12	1662	–
307.9 K	1064.95	1661.2	–
308.15 K	1064.8	1660.5	118
308.4 K	1064.63	1659.8	–
308.65 K	1064.46	1659	–
308.9 K	1064.3	1658.3	–
309.15 K	1064.14	1657.6	–
309.4 K	1063.97	1656.8	–
309.65 K	1063.81	1656.1	–
309.9 K	1063.64	1655.4	–
310.15 K	1063.48	1654.6	105.84
310.4 K	1063.31	1653.9	–
310.65 K	1063.15	1653.1	–
310.91 K	1062.98	1652.4	–
311.16 K	1062.82	1651.7	–
311.4 K	1062.65	1650.9	–
311.65 K	1062.49	1650.2	–
311.91 K	1062.33	1649.4	–
312.16 K	1062.16	1648.7	–
312.41 K	1061.99	1648	–
312.66 K	1061.83	1647.2	–
312.91 K	1061.66	1646.5	–
313.15 K	–	–	93.38
313.16 K	1061.5	1645.7	–
313.4 K	1061.33	1645	–
313.66 K	1061.17	1644.2	–
313.9 K	1061	1643.5	–
314.15 K	1060.84	1642.8	–
314.4 K	1060.67	1642	–
314.65 K	1060.5	1641.3	–
314.9 K	1060.34	1640.5	–
315.15 K	1060.17	1639.8	–
315.41 K	1060.01	1639	–
315.65 K	1059.84	1638.3	81.2
315.91 K	1059.67	1637.6	–
316.16 K	1059.51	1636.8	–
316.41 K	1059.34	1636.1	–
316.66 K	1059.18	1635.4	–
316.91 K	1059.01	1634.6	–
317.16 K	1058.84	1633.9	–
317.4 K	1058.67	1633.2	–
317.66 K	1058.51	1632.4	–
317.91 K	1058.34	1631.7	–
318.15 K	–	–	70.3
318.16 K	1058.17	1630.9	–
318.41 K	1058.01	1630.2	–
318.65 K	1057.84	1629.4	–
318.9 K	1057.67	1628.7	–
319.16 K	1057.51	1628	–
319.41 K	1057.34	1627.2	–
319.65 K	1057.17	1626.5	64.18
319.91 K	1057	1625.7	–
320.16 K	1056.83	1624.9	–
320.41 K	1056.67	1624.2	–
320.65 K	1056.5	1623.4	–
320.91 K	1056.33	1622.7	–
321.15 K	1056.16	1622	–
321.41 K	1056	1621.2	–
321.66 K	1055.83	1620.4	–
321.9 K	1055.66	1619.7	–
322.15 K	1055.49	1618.9	–
322.41 K	1055.32	1618.2	–
322.65 K	1055.15	1617.5	–
322.91 K	1054.99	1616.7	–
323.15 K	–	–	55.1
323.16 K	1054.82	1616	–
323.41 K	1054.65	1615.2	–
323.65 K	1054.48	1614.5	–
323.91 K	1054.31	1613.7	–
324.16 K	1054.15	1613	–
324.41 K	1053.97	1612.2	–
324.65 K	1053.81	1611.4	–
324.9 K	1053.64	1610.7	–
325.16 K	1053.47	1609.9	–
325.4 K	1053.3	1609.2	–
325.66 K	1053.13	1608.4	–
325.9 K	1052.96	1607.7	–
326.16 K	1052.79	1606.9	–
326.41 K	1052.62	1606.2	–
326.66 K	1052.45	1605.4	–
326.9 K	1052.29	1604.7	–
327.16 K	1052.12	1603.9	–
327.4 K	1051.94	1603.2	–
327.66 K	1051.78	1602.4	–
327.9 K	1051.61	1601.7	–
328.15 K	1051.44	1600.9	–
328.41 K	1051.27	1600.2	–
328.66 K	1051.1	1599.4	–
328.9 K	1050.93	1598.6	–
329.16 K	1050.76	1597.9	–
329.4 K	1050.59	1597.1	–
329.65 K	1050.42	1596.4	–
329.9 K	1050.24	1595.6	–
330.16 K	1050.07	1594.9	–
330.41 K	1049.9	1594.1	–
330.66 K	1049.73	1593.3	–
330.91 K	1049.56	1592.6	–
331.16 K	1049.39	1591.8	–
331.41 K	1049.22	1591.1	–
331.66 K	1049.05	1590.3	–
331.91 K	1048.88	1589.5	–
332.16 K	1048.71	1588.8	–
332.41 K	1048.54	1588	–
332.66 K	1048.36	1587.3	–
332.91 K	1048.19	1586.5	–
333.16 K	1048.02	1585.7	–
333.41 K	1047.85	1585	–
333.66 K	1047.68	1584.2	–
333.91 K	1047.51	1583.5	–
334.16 K	1047.33	1582.7	–
334.41 K	1047.16	1582	–
334.66 K	1046.99	1581.2	–
334.91 K	1046.82	1580.5	–
335.16 K	1046.64	1579.7	–
335.41 K	1046.47	1579	–
335.66 K	1046.3	1578.2	–
335.91 K	1046.13	1577.5	–
336.16 K	1045.95	1576.7	–
336.41 K	1045.78	1576	–
336.66 K	1045.61	1575.2	–
336.9 K	1045.44	1574.4	–
337.16 K	1045.27	1573.7	–
337.4 K	1045.09	1572.9	–
337.66 K	1044.92	1572.1	–
337.9 K	1044.75	1571.3	–
338.15 K	1044.58	1570.6	–
